# According to ChEMBL document CHEMBL5705893, “Targeting the mitotic checkpoint for cancer therapy with NMS-P715, an inhibitor of MPS1 kinase” (Cancer Res, 2010):
# Calls of active or inactive are those of the source. The rule behind the calls is not given here.
# Key:
# [1] = system: COLO-678; experiment: Antiproliferative activity against human COLO-678 cells assessed as inhibition of cell growth incubated for 72 hrs by celltiter-glo assay; type: functional, cell-based; details: COLO-678, 72 h
# [2] = system: BJ; experiment: Antiproliferative activity against human BJ cells assessed as inhibition of cell growth incubated for 72 hrs by celltiter-glo assay; type: functional, cell-based
# [3] = system: HeLa; experiment: Induction of mitotic arrest in human nocodazole-arrested HeLa cells assessed as delocalization of BUB1 at 1 micromol/L in presence of MG132; type: functional, cell-based; details: dose 1.0 µmol/L
# [4] = system: EKVX; experiment: Antiproliferative activity against human EKVX cells assessed as inhibition of cell growth incubated for 72 hrs by celltiter-glo assay; type: functional, cell-based
# [5] = molecular target: Tyrosine-protein kinase SYK (Homo sapiens, UniProt P43405)
# Description: Inhibition of recombinant SYK (unknown origin)
# [6] = system: CAPAN-1; experiment: Antiproliferative activity against human CAPAN-1 cells assessed as inhibition of cell growth incubated for 72 hrs by celltiter-glo assay; type: functional, cell-based; details: CAPAN-1, 72 h
# [7] = system: NCI-H526; experiment: Antiproliferative activity against human NCI-H526 cells assessed as inhibition of cell growth incubated for 72 hrs by celltiter-glo assay; type: functional, cell-based; details: NCI-H526, 72 h
# [8] = system: T98G; experiment: Antiproliferative activity against human T98G cells assessed as inhibition of cell growth incubated for 72 hrs by celltiter-glo assay; type: functional, cell-based
# [9] = system: NCI-H322M; experiment: Antiproliferative activity against human NCI-H322M cells assessed as inhibition of cell growth incubated for 72 hrs by celltiter-glo assay; type: functional, cell-based
# [10] = AUC in Athymic nu-nu mouse at 10 mg/kg, iv measured upto 24 hrs by LC-MS/MS analysis; type: ADME, organism-based; details: in vivo
# [11] = system: LP-1; experiment: Antiproliferative activity against human LP-1 cells assessed as inhibition of cell growth incubated for 72 hrs by celltiter-glo assay; type: functional, cell-based; details: LP-1, 72 h
# [12] = molecular target: Tyrosine-protein kinase JAK3 (Homo sapiens, UniProt P52333); experiment: Inhibition of recombinant JAK3 (unknown origin)
# Chain of Tyrosine-protein kinase JAK3 (P52333 whole entry): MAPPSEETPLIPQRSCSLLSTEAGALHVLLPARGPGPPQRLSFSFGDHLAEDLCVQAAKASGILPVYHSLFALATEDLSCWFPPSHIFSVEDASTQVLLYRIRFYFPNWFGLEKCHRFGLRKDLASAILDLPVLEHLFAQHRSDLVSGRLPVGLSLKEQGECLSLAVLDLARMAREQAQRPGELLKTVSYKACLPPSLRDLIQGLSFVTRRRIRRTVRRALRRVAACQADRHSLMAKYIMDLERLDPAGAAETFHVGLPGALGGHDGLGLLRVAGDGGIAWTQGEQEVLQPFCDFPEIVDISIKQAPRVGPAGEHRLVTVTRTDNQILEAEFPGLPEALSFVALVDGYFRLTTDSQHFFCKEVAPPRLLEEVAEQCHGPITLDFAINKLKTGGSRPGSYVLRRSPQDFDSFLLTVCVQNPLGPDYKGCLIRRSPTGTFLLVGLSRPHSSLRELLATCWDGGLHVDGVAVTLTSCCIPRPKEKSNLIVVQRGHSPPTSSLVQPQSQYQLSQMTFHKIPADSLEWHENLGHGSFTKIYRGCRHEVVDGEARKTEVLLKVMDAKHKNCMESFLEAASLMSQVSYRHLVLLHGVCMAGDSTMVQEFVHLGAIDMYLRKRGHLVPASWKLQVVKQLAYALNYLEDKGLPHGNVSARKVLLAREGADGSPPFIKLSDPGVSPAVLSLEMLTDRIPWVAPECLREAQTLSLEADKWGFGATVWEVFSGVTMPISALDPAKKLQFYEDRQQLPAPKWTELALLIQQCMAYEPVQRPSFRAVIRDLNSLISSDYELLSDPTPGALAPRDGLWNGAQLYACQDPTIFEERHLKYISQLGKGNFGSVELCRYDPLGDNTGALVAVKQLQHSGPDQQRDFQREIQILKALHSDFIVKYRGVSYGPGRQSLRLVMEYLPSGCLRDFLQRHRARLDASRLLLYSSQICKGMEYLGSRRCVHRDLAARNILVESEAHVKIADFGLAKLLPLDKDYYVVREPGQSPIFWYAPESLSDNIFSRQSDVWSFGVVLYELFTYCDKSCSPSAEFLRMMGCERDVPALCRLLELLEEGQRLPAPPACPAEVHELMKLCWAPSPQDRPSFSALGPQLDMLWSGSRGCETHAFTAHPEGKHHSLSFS
# [13] = system: A498; experiment: Antiproliferative activity against human A498 cells assessed as inhibition of cell growth incubated for 72 hrs by celltiter-glo assay; type: functional, cell-based; details: A498, 72 h
# [14] = system: NCI-H929; experiment: Antiproliferative activity against human NCI-H929 cells assessed as inhibition of cell growth incubated for 72 hrs by celltiter-glo assay; type: functional, cell-based; details: NCI-H929, 72 h
structure (smiles),measurement,setting,value
CCc1cccc(CC)c1NC(=O)c1nn(C)c2c1CCc1cnc(Nc3ccc(C(=O)NC4CCN(C)CC4)cc3OC(F)(F)F)nc1-2,IC50,[1],10 µM
same,IC50,[2],5.47 µM
same,Activity,[3],Active
same,IC50,[4],6.98 µM
same,IC50,[5],> 10 µM
same,IC50,[6],5.22 µM
same,IC50,[7],2.2 µM
same,IC50,[8],0.203 µM
same,IC50,[9],1.55 µM
same,AUC at 24 h,[10],22.4 µM·h
same,IC50,[11],3.48 µM
same,IC50,[12],> 10 µM
same,IC50,[13],1.71 µM
same,IC50,[14],10 µM
